{
  "source": "patent US11466066B2",
  "about": "“Variants of human BMP7 protein” (ELI LILLY AND COMPANY, priority 2017, dated 2022)",
  "key": {"[1]": {"system": "ADSC/ECFC co-culture stimulated with VEGF", "experiment": "VEGF-driven cord formation", "format": "cell-based", "details": "100 nM; 10 ng/ml VEGF; 96 hours", "description": "(§1) An in vitro endothelial cord formation assay, a surrogate of angiogenesis, may be used to investigate the role of human BMP7 proteins on various growth factor established cords including, but not limited to, VEGF, basic FGF, and EGF established cords. Endothelial cord forming cells (ECFCs; passage 4-10 suitable for cord formation) may be cultured in EGM-2 MV (Lona) media containing a final concentration of 10% FBS and passaged onto type 1 collagen (fibrillar) coated flasks prior to seeding into the cord formation assay in vitro. […]\n(§2) An ADSC/ECFC co-culture was unstimulated (basal) or stimulated with 10 ng/ml VEGF and treated simultaneously with PBS or 100 ng/ml human pro-BMP7 variant F9 or 100 nM sunitinib for 96 hours prior to immunohistochemistry for CD31 (green), α-smooth muscle actin (red), and Hoechst 33342 to stain all nuclei (blue). Resulting CD31-positive endothelial cords were visualized and quantitated using high content imaging. […]"}, "[2]": {"system": "ADSC/ECFC co-culture stimulated with bFGF", "experiment": "FGF-driven cord formation", "format": "cell-based", "details": "100 nM; 10 ng/ml bFGF; 96 hours", "description": "as §1\nas §2, with “bFGF” for “VEGF”"}, "[3]": {"system": "ADSC/ECFC co-culture stimulated with EGF", "experiment": "EGF-driven cord formation", "format": "cell-based", "details": "100 nM; 10 ng/ml EGF; 96 hours", "description": "as §1\nas §2, with “EGF” for “VEGF”"}, "[4]": {"system": "DLD1 C5 tumor xenografts", "experiment": "DLD1 C5 mouse xenograft tumor model", "format": "in vivo", "details": "saline-treated, then irinotecan treated animals (20 mg/kg, M and Th)", "method": "Female athymic nude mice age 6- to 7-weeks old are available commercially, including from Harlan Laboratories (Indianapolis, Ind.). The mice are allowed to acclimate for one week and fed ad libitum on a normal low fat (4.5%) diet, which may be continued for the duration of the study. Tumor cells are available for purchase from ATCC and may be cultured in cell culture media such as RPMI 1640 (Life Technologies) with L-glutamine, 25 mM HEPES supplemented with 10% FBS and 1 mM Na Pyruvate. Cells may be detached, washed with serum free medium and then resuspended at a final concentration of 50×10^6 cells/mL in serum free RPMI 1640. Tumor cells, approximately 5×106 may be injected subcutaneously in the rear flank of subject mice in a 1:1 mixture of serum free growth medium and Matrigel (Becton Dickinson, Bedford, Mass.). Tumor and body weight measurements may be performed twice weekly. Prior to treatment, mice can be randomized based on tumor size using a randomization algorithm. Treatments may be started when the average tumor volume reaches 100 mm3. […]\nAll test or control proteins are prepared in phosphate Buffered Saline (PBS) prior to dose. Tumor size may be determined by caliper measurements. […] Log volume data can be analyzed with two-way repeated measures ANOVA by time and treatment using SAS PROC MIXED software (SAS Institutes Inc, Cary, N.C.). […]"}, "[5]": {"system": "3T3-L1 fibroblasts", "experiment": "Alkaline phosphatase stimulation in 3T3-L1 cells", "format": "cell-based", "details": "1 μg/ml pro-BMP7, 1 μM ATRA, 48 hours", "method": "(§3) 3T3-L1 fibroblasts and MFc7 mouse renal myofibroblasts may be grown essentially as described in Example 2 above. After 48 hours the cells may be washed with PBS prior to the addition of either DMEM/2% dialyzed FBS or OPTI-MEM/2% dialyzed FBS medium containing control vehicle, 1 μg/ml human proBMP7 protein, 1 μM ATRA or a combination of both human BMP7 protein (1 μg/ml) and ATRA (1 μM) may be added for 48 hours. After treatment the cells may be rinsed with PBS and stored at −80° C. for approximately 20 minutes. The cells may be thawed at 37° C. for 30 minutes and 100 μl of PNPP may be added to every well. The plate may be incubated at 37° C. for 1 hour. The absorbance at 405 nm may be read on a plate reader."}, "[6]": {"system": "MFc7 mouse renal myofibroblasts", "experiment": "Alkaline phosphatase stimulation in MFc7 cells", "format": "cell-based", "details": "1 μg/ml pro-BMP7, 1 μM ATRA, 48 hours", "method": "as §3"}, "[7]": {"system": "SOX2", "experiment": "SOX2 expression in GBM cells", "format": "cell-based, human", "details": "ATRA 1 μg/ml, F9 100 ng/mL", "method": "(§4) Glioblastoma multiforme stem cells (GBMs) may be obtained from patients with primitive brain tumors undergoing complete or partial surgical resection. These cells may be maintained as neurospheres in defined media with 3.34 g/L of DMEM and 2.66 g/L F12 reconstituted in sterile distilled water and containing 1% glucose, 0.12% sodium bicarbonate, 5 mM hepes, 2 mM L-glutamine, 4 mg/L heparin, 10 ng/mL bFGF, 20 ng/mL EGF, 0.4% BSA, 100 μg/mL apotransferrin, 25 μg/mL insulin, 60 uM putrescine, 30 nM sodium selenite, and 20 nM progesterone. Cells may be cultured at 37° C. in 5% CO2. Cells may be plated by enzymatically dispersing spheres into single cells with a 2-5 minute incubation at 37° C. with TrypLE™ Express cell dissociation enzyme. The enzyme may be quenched with Dulbecco's Phosphate Buffered Saline (DPBS) containing Ca+ and Mg+. Then the cells may centrifuged to remove TrypLE and DPBS and resuspended as single cells in defined media and counted by a Coulter Z2 Cell and Particle counter.\n(§5) Single GBM cells may be plated in defined media at 2×10^6 cells/15 mL/T75 flask for high content imaging or 5×10^5 cells/2 mL/well in 6-well plates for light microscopy. Cells may be treated with 0.01% DMSO, 1 μg/mL ATRA, 100 ng/mL of a human BMP7 protein variant of the present invention (e.g., human BMP7 protein variant F9 (SEQ ID NO: 8)), or a combination of 1 μg/mL ATRA and 100 ng/mL human BMP7 protein variant of the present invention. For light microscopy imaging of the effect of control BMPs (BMP2 and BMP4), cells may be plated as above in 6-well dishes and treated with 0.01% DMSO, 1 μg/mL ATRA, 100 ng/mL BMP2, 50 ng/mL BMP4, or a combination of BMPs at the same concentrations plus 1 μg/mL ATRA. Example images may be captured at 3, 7, and 30 days post-treatment on a Leica DMIRM inverted microscope using a 20× objective, for example. For growth longer than 7 days, media and treatment may be changed approximately every 10 days beginning at day 10. […]"}, "[8]": {"system": "Ki67", "experiment": "Ki67 expression in GBM cells", "format": "cell-based, human", "details": "ATRA 1 μg/ml, F9 100 ng/mL", "method": "as §4, §5"}},
  "data": [
    {"smiles": "CCN(CC)CCNC(=O)c1c(C)[nH]c(/C=C2\\C(=O)Nc3ccc(F)cc32)c1C", "note": "[sunitinib, reference compound]", "values": [
      {"measurement": "Connected Tube Area - VEGF (% PBS)", "setting": "[1]", "value": "26.14 ± 9.88", "unit": "%"},
      {"measurement": "Connected Tube Area - FGF (% PBS)", "setting": "[2]", "value": "43.01 ± 18.28", "unit": "%"},
      {"measurement": "Connected Tube Area - EGF (% PBS)", "setting": "[3]", "value": "9.89 ± 8.059", "unit": "%"}
    ]},
    {"smiles": "CCc1c2c(nc3ccc(OC(=O)N4CCC(N5CCCCC5)CC4)cc13)-c1cc3c(c(=O)n1C2)COC(=O)[C@]3(O)CC", "note": "[irinotecan, reference compound]", "values": [
      {"measurement": "tumor response", "setting": "[4]", "value": "tumor growth"}
    ]},
    {"smiles": "CC1=C(/C=C/C(C)=C/C=C/C(C)=C/C(=O)O)C(C)(C)CCC1", "note": "[ATRA, All-trans retinoic acid, reference compound]", "values": [
      {"measurement": "fold change in alkaline phosphatase stimulation relative to control vehicle treated cells", "setting": "[5]", "value": 2.9, "unit": "fold"},
      {"measurement": "fold change in alkaline phosphatase stimulation relative to control vehicle treated cells", "setting": "[6]", "value": 8, "unit": "fold"},
      {"measurement": "SOX2 percent responders normalized to vehicle control", "setting": "[7]; GBM clone CL-1, Day 3", "value": 97, "unit": "%"},
      {"measurement": "SOX2 percent responders normalized to vehicle control", "setting": "[7]; GBM clone CL-61, Day 0", "value": 89, "unit": "%"},
      {"measurement": "SOX2 percent responders normalized to vehicle control", "setting": "[7]; GBM clone Cl-1, Day 25", "value": 97, "unit": "%"},
      {"measurement": "Ki67 percent responders normalized to vehicle control", "setting": "[8]; GBM clone CL-1, Day 3", "value": 99, "unit": "%"},
      {"measurement": "Ki67 percent responders normalized to vehicle control", "setting": "[8]; GBM clone CL-61, Day 0", "value": 83, "unit": "%"},
      {"measurement": "Ki67 percent responders normalized to vehicle control", "setting": "[8]; GBM clone Cl-1, Day 25", "value": 101, "unit": "%"}
    ]}
  ]
}
